Here are results for three molecules from ChEMBL document CHEMBL1148125, “Total synthesis and bioactivity of some naturally occurring pterulones” (2002).

What all share (format): functional
Test [1] has as its system Rhodotorula glutinis. Put plainly: Antimicrobial activity against Rhodotorula glutinis ATCC 201718 assessed as relative growth at 50 ug/mL after 24 to 48 hrs relative to control.
The test system of test [2] is Rhodotorula glutinis. Put plainly: Antimicrobial activity against Rhodotorula glutinis ATCC 201718 assessed as relative growth at 100 ug/mL after 24 to 48 hrs relative to control.
Test [3] has as its system Saccharomyces cerevisiae. In words: Antimicrobial activity against Saccharomyces cerevisiae CBS 1394 assessed as relative growth at 50 ug/mL after 24 to 48 hrs relative to control.
Test [4] has as its system Saccharomyces cerevisiae. Put plainly: Antimicrobial activity against Saccharomyces cerevisiae CBS 1394 assessed as relative growth at 100 ug/mL after 24 to 48 hrs relative to control.

On to `CC(=O)c1ccc2c(c1)C=C/C(=C/Cl)CO2`, for which the Activity in the test with Rhodotorula glutinis [1] was 58%; in the test with Rhodotorula glutinis [2], 40%; in the test with Saccharomyces cerevisiae [3], 91%; in the test on Saccharomyces cerevisiae [4], 84%.

For `O=Cc1ccc2c(c1)C=C/C(=C/Cl)CO2`, the Activity with Rhodotorula glutinis [1] is reported as 96%; with Rhodotorula glutinis [2], 65%; in the test on Saccharomyces cerevisiae [3], 91%; in the test on Saccharomyces cerevisiae [4], 87%.

Regarding `OCc1ccc2c(c1)C=C/C(=C/Cl)CO2`, the Activity is recorded as 5.5% in the test with Rhodotorula glutinis [1], under 1% in the test on Rhodotorula glutinis [2], 89% in the test on Saccharomyces cerevisiae [3] and 1% with Saccharomyces cerevisiae [4].
